Tested on: Normal human keratinocytes (HEKa)
Experiment: Real-time quantitative PCR gene expression in normal human keratinocytes treated for 24 hours
Format: cell-based

Fold Up- or Down-Regulation CYP1A1 (gene CYP1A1, 20 ug/mL, vs. water-treated control): −1.8 Fold
SMILES: C=CC1=C(C)C2=CC3=NC(=C(CC(=O)[O-])C4=NC(=C(C)C4=C([O-])[O-])C=c4[n-]c(c(C)c4CC)=CC1=N2)[C@@H](CCC(=O)[O-])[C@@H]3C.[Cu+2].[Na+].[Na+].[Na+] [TCCE6, trisodium copper (II) chlorin e6]
Fold Up- or Down-Regulation 18S (gene 18S (housekeeping), 20 ug/mL, vs. water-treated control): 1.1 Fold
Fold Up- or Down-Regulation AQP3 (gene AQP3, 20 ug/mL, vs. water-treated control): 1.7 Fold
Fold Up- or Down-Regulation AREL1 (gene AREL1, 20 ug/mL, vs. water-treated control): −1.0 Fold
Fold Up- or Down-Regulation ARRDC3 (gene ARRDC3, 20 ug/mL, vs. water-treated control): 6.1 Fold
Fold Up- or Down-Regulation BAMBI (gene BAMBI, 20 ug/mL, vs. water-treated control): 6.2 Fold
Fold Up- or Down-Regulation CCL20 (gene CCL20, 20 ug/mL, vs. water-treated control): 1.3 Fold
Fold Up- or Down-Regulation CDKN1A (gene CDKN1A, 20 ug/mL, vs. water-treated control): 1.5 Fold
Fold Up- or Down-Regulation CSF1 (gene CSF1, 20 ug/mL, vs. water-treated control): −1.3 Fold
Fold Up- or Down-Regulation CSF2 (gene CSF2, 20 ug/mL, vs. water-treated control): −1.2 Fold
Fold Up- or Down-Regulation CXCL1 (gene CXCL1, 20 ug/mL, vs. water-treated control): 1.6 Fold
Fold Up- or Down-Regulation CXCL2 (gene CXCL2, 20 ug/mL, vs. water-treated control): 1.2 Fold
Fold Up- or Down-Regulation CXCL3 (gene CXCL3, 20 ug/mL, vs. water-treated control): 1.7 Fold
Fold Up- or Down-Regulation CXCL8 (gene CXCL8, 20 ug/mL, vs. water-treated control): 1.1 Fold
Fold Up- or Down-Regulation CXCL10 (gene CXCL10, 20 ug/mL, vs. water-treated control): 2.0 Fold
Fold Up- or Down-Regulation CYB561 (gene CYB561, 20 ug/mL, vs. water-treated control): −1.1 Fold
Fold Up- or Down-Regulation DDX5 (gene DDX5, 20 ug/mL, vs. water-treated control): 1.0 Fold
Fold Up- or Down-Regulation DEFB1 (gene DEFB1, 20 ug/mL, vs. water-treated control): 2.2 Fold
Fold Up- or Down-Regulation EPGN (gene EPGN, 20 ug/mL, vs. water-treated control): 2.3 Fold
Fold Up- or Down-Regulation FGF2 (gene FGF2, 20 ug/mL, vs. water-treated control): −1.2 Fold
Fold Up- or Down-Regulation FOS (gene FOS, 20 ug/mL, vs. water-treated control): 3.7 Fold
Fold Up- or Down-Regulation G2E3 (gene G2E3, 20 ug/mL, vs. water-treated control): −1.2 Fold
Fold Up- or Down-Regulation GDF15 (gene GDF15, 20 ug/mL, vs. water-treated control): 1.9 Fold
Fold Up- or Down-Regulation GPADH (gene GPADH (housekeeping), 20 ug/mL, vs. water-treated control): −1.2 Fold
Fold Up- or Down-Regulation GPX2 (gene GPX2, 20 ug/mL, vs. water-treated control): −1.1 Fold
Fold Up- or Down-Regulation HBEGF (gene HBEGF, 20 ug/mL, vs. water-treated control): 2.5 Fold
Fold Up- or Down-Regulation HECTD1 (gene HECTD1, 20 ug/mL, vs. water-treated control): −1.0 Fold
Fold Up- or Down-Regulation HERC1 (gene HERC1, 20 ug/mL, vs. water-treated control): 1.1 Fold
Fold Up- or Down-Regulation HIF1AN (gene HIF1AN, 20 ug/mL, vs. water-treated control): −1.3 Fold
Fold Up- or Down-Regulation HPRT1 (gene HPRT1 (housekeeping), 20 ug/mL, vs. water-treated control): 1.0 Fold
Fold Up- or Down-Regulation HSP90B1 (gene HSP90B1, 20 ug/mL, vs. water-treated control): 1.4 Fold
Fold Up- or Down-Regulation IFI44L (gene IFI44L, 20 ug/mL, vs. water-treated control): −2.5 Fold
Fold Up- or Down-Regulation JUN (gene JUN, 20 ug/mL, vs. water-treated control): 1.2 Fold
Fold Up- or Down-Regulation JUNB (gene JUNB, 20 ug/mL, vs. water-treated control): 1.9 Fold
Fold Up- or Down-Regulation LTB4R (gene LTB4R, 20 ug/mL, vs. water-treated control): 1.1 Fold
Fold Up- or Down-Regulation MAFF (gene MAFF, 20 ug/mL, vs. water-treated control): 2.2 Fold
Fold Up- or Down-Regulation MAP1LC3B (gene MAP1LC3B, 20 ug/mL, vs. water-treated control): 1.5 Fold
Fold Up- or Down-Regulation MAPK14 (gene MAPK14, 20 ug/mL, vs. water-treated control): −1.1 Fold
Fold Up- or Down-Regulation MGAT1 (gene MGAT1, 20 ug/mL, vs. water-treated control): −1.7 Fold
Fold Up- or Down-Regulation MGAT5 (gene MGAT5, 20 ug/mL, vs. water-treated control): 1.2 Fold
Fold Up- or Down-Regulation MOGS (gene MOGS, 20 ug/mL, vs. water-treated control): −1.3 Fold
Fold Up- or Down-Regulation N4BP1 (gene N4BP1, 20 ug/mL, vs. water-treated control): 1.3 Fold
Fold Up- or Down-Regulation NFKBIA (gene NFKBIA, 20 ug/mL, vs. water-treated control): 1.3 Fold
Fold Up- or Down-Regulation PELI1 (gene PELI1, 20 ug/mL, vs. water-treated control): 1.4 Fold
Fold Up- or Down-Regulation PLAUR (gene PLAUR, 20 ug/mL, vs. water-treated control): 9.7 Fold
Fold Up- or Down-Regulation PPP1R15A (gene PPP1R15A, 20 ug/mL, vs. water-treated control): 2.5 Fold
Fold Up- or Down-Regulation PTGFRN (gene PTGFRN, 20 ug/mL, vs. water-treated control): −2.6 Fold
Fold Up- or Down-Regulation PTGS2 (gene PTGS2, 20 ug/mL, vs. water-treated control): 2.4 Fold
Fold Up- or Down-Regulation PTX3 (gene PTX3, 20 ug/mL, vs. water-treated control): 1.8 Fold
Fold Up- or Down-Regulation REL (gene REL, 20 ug/mL, vs. water-treated control): −1.1 Fold
Fold Up- or Down-Regulation RSAD2 (gene RSAD2, 20 ug/mL, vs. water-treated control): 1.2 Fold
Fold Up- or Down-Regulation SAMD9L (gene SAMD9L, 20 ug/mL, vs. water-treated control): 1.5 Fold
Fold Up- or Down-Regulation SOD2 (gene SOD2, 20 ug/mL, vs. water-treated control): −1.4 Fold
Fold Up- or Down-Regulation SPRR2B (gene SPRR2B, 20 ug/mL, vs. water-treated control): 6.5 Fold
Fold Up- or Down-Regulation TGFB1 (gene TGFB1, 20 ug/mL, vs. water-treated control): −1.2 Fold
Fold Up- or Down-Regulation TNF (gene TNF, 20 ug/mL, vs. water-treated control): 1.2 Fold
Fold Up- or Down-Regulation TNFAIP3 (gene TNFAIP3, 20 ug/mL, vs. water-treated control): 2.6 Fold
Fold Up- or Down-Regulation UBE2S (gene UBE2S, 20 ug/mL, vs. water-treated control): −1.1 Fold
Fold Up- or Down-Regulation UBE3B (gene UBE3B, 20 ug/mL, vs. water-treated control): 1.4 Fold
Fold Up- or Down-Regulation UBE4B (gene UBE4B, 20 ug/mL, vs. water-treated control): −1.4 Fold
Fold Up- or Down-Regulation UBE20 (gene UBE20, 20 ug/mL, vs. water-treated control): 2.5 Fold
Fold Up- or Down-Regulation VCP (gene VCP, 20 ug/mL, vs. water-treated control): 1.2 Fold
Fold Up- or Down-Regulation VEGFA (gene VEGFA, 20 ug/mL, vs. water-treated control): 2.5 Fold
fold value changes of significantly (p<0.05) upregulated or downregulated genes (genes ARRDC3, BAMBI, CXCL10, DEFB1, EPGN, FOS, HBEGF, IFI44L, MAFF, PLAUR, PPP1R15A, PTGS2, SPRR2B, TNFAIP3, UBE20, VEGFA, 20 ug/mL): ≥ 2.0 ×

— patent US20250255883A1, “Compositions and Methods for Treating Aging Hair” (CHL Industries, LLC, priority 2021, published 2025)
